Assay results reported in PubChem BioAssay AID624344 (Sanford-Burnham Center for Chemical Genomics, 2012).
pIC50: −log10 of the molar value. Active and inactive are the calls of the source. How the calls were made is not given here. Square brackets hold non-standard residues; d marks the D form. Peptide text beside a SMILES is read from it. NMeY = CN[C@@H](Cc1ccc(O)cc1)C(=O)O; NMeF = CN[C@@H](Cc1ccccc1)C(=O)O; 2Abz = Nc1ccccc1C(=O)O

Legend:
[1] = NFkB reporter suppression in cystic fibrosis bronchial cells – cell-based, uHTS hits, panel, cytotoxicity readout, dose response (AID 624344); conditions: CF bronchial epithelial cells, PAF-induced NFkB reporter inhibition; with PAF, mean of runs
Cytotoxicity = assay: as above; conditions: CF bronchial epithelial cells, mean of runs

SMILES	pIC50 [1]	pIC50 (Cytotoxicity)	IC50 [1]	IC50 (Cytotoxicity)
C=C1C(=O)O[C@H]2C[C@H]1[C@@H](OC(C)=O)C/C(C)=C/CC/C(C)=C\CC[C@]2(C)O	5.70	5.62		
O=[N+]([O-])C1C(c2ccccc2)C12c1ccccc1-c1ccccc12 (stereo unspecified)			inactive	64.1 µM (inactive)
CCOC(=O)Nc1ccc2c(c1)N(C(=O)CCN(CC)CC)c1ccccc1S2=O (stereo unspecified)	5.23	4.46		
COCCCN=C1NN=C(c2cc(C)n(Cc3ccccc3Cl)c2C)CS1			inactive	> 79 µM (inactive)
C=CCc1cc(S(=O)(=O)c2ccc(O)c(CC=C)c2)ccc1O	5.20			56.8 µM (inactive)
COc1ccc(-c2csc(/C(C#N)=C\c3ccc(O)c([N+](=O)[O-])c3)n2)cc1OC	5.55	4.34		
COc1cccc(/C=N/n2c(C3CCCCC3)n[nH]c2=S)c1	5.40	4.47		
COc1ccc(CNc2ncnc3ccccc23)cc1	4.82			59.5 µM (inactive)
CN(Cc1ccccc1)c1ncnc(N)c1[N+](=O)[O-]	5.46			54.8 µM (inactive)
CC(=O)Nc1ccc(Nc2nc(-c3sc(NC(C)=O)nc3C)cs2)cc1	5.77	4.55		
CCN(CC)CCN(C(=O)CCS(=O)(=O)c1ccccc1)c1nc2c(C)cc(C)cc2s1	5.22	5.10		
O=C(Oc1cc2oc(=O)cc(-c3ccccc3)c2cc1Cl)C1CCCCC1	5.65	4.51		
CCOC(=O)C1=C(CC)Nc2ccccc2N=C1NC(=O)c1oc2ccccc2c1C	5.35	5.21		
COc1cc2c(Cc3ccccc3)cncc2cc1O	5.19	4.43		
Nc1ncnc(N2CCc3ccccc32)c1[N+](=O)[O-]	6.19	4.53		
O=C(CCC1COc2ccccc2O1)Nc1ccc(Cl)cn1 (stereo unspecified)	4.99			50.9 µM (inactive)
Cc1ccc(CNc2ncnc3ccc(-c4ccc(CO)o4)cc23)o1	6.05	5.42		
COc1cc(NC(=O)c2csc(-c3ccncc3)n2)cc(C(=O)Nc2cccc(C(F)(F)F)c2)c1	5.36	4.34		
C[C@@H]1CC=C[C@H]2[C@H]1C(=O)N(Cc1ccccc1)[C@H]2c1ccc2ccccc2c1Br	5.30	4.89		
COC1(OC)C=CC(=O)C=C1NC(=O)c1ccccc1OC(C)=O	5.39	4.82		
NC(=S)N1OC[C@@H]2COc3ccc4ccccc4c3[C@@H]21	5.32	4.51		
O=C1N(c2ccccc2C(F)(F)F)O[C@@]1(c1ccccc1)C1CCCCC1	5.08			> 79 µM (inactive)
Cc1cccc(N(Cc2cc(=O)[nH]c3ccccc23)C(=O)CCl)c1	5.91	5.70		
N#CC1c2ccccc2-n2nncc2CN1Cc1cc(Cl)cc(Cl)c1 (stereo unspecified)	5.67	5.80		
Cc1ccc(C(=O)c2cc([N+](=O)[O-])ccc2N2CCCCC2)c(C)c1	5.16			> 79 µM (inactive)
CC(C)=CCc1c(O)cc(O)c2c1OC(c1ccc(O)cc1)CC2=O (stereo unspecified)	5.34	4.36		

SMILES	pIC50 [1]	pIC50 (Cytotoxicity)	IC50 [1]	IC50 (Cytotoxicity)
c1csc(CNc2ncnc3ccc(-c4ccoc4)cc23)c1	6.71	5.11		
O=c1c(O)c(-c2ccccc2)oc2cc(O)cc(O)c12	5.49			54 µM (inactive)
O=C1Cc2c([nH]c3ccc(Br)cc23)-c2ccccc2N1	5.43	4.79		
CCOCC(=O)NC1CCc2cc(OC(=O)COCC)c(OC)c(OC)c2-c2ccc(SC)c(=O)cc21 (stereo unspecified)		4.35	inactive	
Cc1cccc(NC(=O)Nc2ccc(C#N)cc2)n1	5.75	4.69		
CCOC(=O)Cc1nnc2c(Nc3ccc(Cl)cc3)nc3nonc3n12	5.49	5.76		
COc1cccc(CN(C)C(=O)C(CCSC)NS(=O)(=O)c2ccc3c(c2)OCCO3)c1OC (stereo unspecified)	5.47	4.88		
Nc1ncnc(Sc2ccc(Cl)cc2)c1[N+](=O)[O-]	5.38	4.94		
CN(C)CCCN(C(=O)CCSc1ccccc1)c1nc2cc3c(cc2s1)OCO3	5.02	4.58		
CC(C)(C)S(=O)N1Cc2cc(C(=O)NCC(F)(F)F)nc(-c3cccc(-c4cccc(F)c4)c3)c2[C@@H]1CCO (stereo partly specified)	5.23	4.80		
COc1cc(C2c3cc4c(cc3CC3COC(=O)C32)OCO4)cc(OC)c1O (stereo unspecified)			> 79 µM (inactive)	> 79 µM (inactive)
Cc1ccc(-n2nnnc2Sc2ccc(S(=O)(=O)NCCN(C)C)cc2[N+](=O)[O-])cc1	5.58	5.70		
CC1(C)CC(=O)C(C2C3=C(CC(C)(C)CC3=O)Oc3c(Br)cc(Br)cc32)=C(O)C1 (stereo unspecified)	5.21	4.82		
CC1(C)CC(=O)C=C(NC2=CC3OC(c4ccccc4)OCC3OC2=O)C1 (stereo unspecified)	5.47	4.77		
CCCNC(=O)COC(=O)c1ccccc1C(=O)c1ccc(Cl)c([N+](=O)[O-])c1	5.74	5.11		
COc1ccc(CN(CCC(c2ccc(F)cc2)C2CCOC(C)(C)C2)C(=O)c2ccco2)cc1 (stereo unspecified)	5.18	5.05		
Cc1nc2c(O)c3c(c(O)c2nc1C)C1C=CC3CC1	5.25	5.15		
Cc1c(O)ccc2c(-c3ccccc3)cc(=O)oc12	5.40			70.9 µM (inactive)
Cc1cnc(NC(=O)C2CC(=O)N(c3cccc(Cl)c3)C2)s1 (stereo unspecified)	5.50	4.54		
COc1ccc(C2=Nn3c(nnc3-c3ccccc3OC)SC2)cc1OC1CCCC1	6.64			> 79 µM (inactive)
c1cncc(CNc2ncnc3ccc(-c4ccoc4)cc23)c1	5.86			50.1 µM (inactive)
Fc1ccc(-n2cc(-c3ccccc3)c3c(N4CCOCC4)ncnc32)cc1	5.49	5.09		
Cc1ccc(NC(=O)CSc2ncnc3ccccc23)cc1S(=O)(=O)N1CCOCC1	5.38	4.46		
CC(C)C[C@@H](CN1CCCC1CN1C(=S)NC[C@@H]1Cc1ccc(O)cc1)N1C[C@H](Cc2ccc(O)cc2)N(CC2CCCCC2)C1=S (stereo partly specified)	5.04	4.70		
COc1cccc(NC(=O)Nc2nnc(CC(=O)NCc3ccccc3)s2)c1	5.29			52.3 µM (inactive)
CC(=O)c1c(O)cc2c3c1OC(C)(C)C1CCC(C)(CC31)O2 (stereo unspecified)	5.56			53.5 µM (inactive)

SMILES	pIC50 [1]	pIC50 (Cytotoxicity)	IC50 [1]	IC50 (Cytotoxicity)
CC(=O)Oc1ccc(N(C(C)=O)S(=O)(=O)c2ccc(Cl)cc2)c2ccccc12	5.13	4.64		
Cn1c(N2CCN(C(c3ccccc3)c3ccccc3)CC2)nc2c1c(=O)[nH]c(=O)n2C	5.43	5.12		
C=CCN1c2ccccc2Sc2cnccc21	5.59	4.39		
COc1nc(N)c(C#N)c(-c2ccc(N(C)CCC#N)cc2)c1C#N	5.48			> 79 µM (inactive)
O=C(Nc1cccc(-c2cnc3ccccc3n2)c1)c1cccc(NC(=O)c2ccco2)c1	5.43	5.17		
CC(=O)Nc1nc(C)c(-c2csc(Nc3cccc(C(C)=O)c3)n2)s1	6.27	4.40		
CC(C)c1nc(NCCO)c(C#N)c2c1CCCC2	5.24			> 79 µM (inactive)
O=C(NNc1ccccc1Cl)C(O)(c1cccc(C(F)(F)F)c1)c1cccc(C(F)(F)F)c1	4.88	5.14		
Cc1ccc2nc(SCC(=O)Nc3cc(C(F)(F)F)ccc3N3CCOCC3)[nH]c2c1			inactive	60.8 µM (inactive)
COc1cc(-c2cc(C(=O)Nc3ccc(S(=O)(=O)NCc4ccco4)cc3)c3ccccc3n2)cc(OC)c1OC	5.40	5.13		
CC(C)OC(=O)c1cccc(C(=O)Nc2cccc(NC(=O)c3cccc(C(=O)OC(C)C)n3)n2)n1	5.35			> 79 µM (inactive)
COc1ccc(-c2cnc3c(NC=O)cc(-c4ccc(C(=O)N5CCOCC5)cc4)cn23)cc1OC	5.53	4.83		
COc1ccc(-c2cc(=O)oc3cc(OC(=O)C4CCCCC4)c(Cl)cc23)cc1	6.52			61.6 µM (inactive)
COc1ccc(NC(=O)c2cc3c(-c4ccc(OC)c(OC)c4)nn(C)c3s2)cc1OC	5.22	5.26		
COc1ccc(N(CCCN2C(=O)c3cccc4cccc(c34)C2=O)C(=O)c2ccncc2)cc1		4.89	inactive	
CCOc1ccc(CCN2C(=S)N([C@@H](CC(C)C)CN3CCCC3CN3C(=S)NC[C@@H]3CC(C)C)C[C@@H]2Cc2ccc(O)cc2)cc1 (stereo partly specified)	4.83			64.1 µM (inactive)
COc1ccc(-n2c(C)cc3cc(OC(C)=O)ccc32)cc1	5.04			> 79 µM (inactive)
C=C1C(=O)[C@]23C[C@H]1CC[C@H]2[C@]1(C)[C@@H](OC(C)=O)CC[C@@](C)(C(=O)O)[C@H]1C[C@@H]3O	6.03	5.08		
CC(C)C[C@@H]1NC(=O)[C@H](Cc2ccccc2)N(C)C(=O)[C@H](C)NC(=O)c2ccccc2NC(=O)[C@H](Cc2ccc(O)cc2)N(C)C1=O (cyclo([2Abz]A[NMeF]L[NMeY]))	5.47	5.18		
COc1cc2c(c(OC)c1OC)-c1ccc(NCc3ccccc3)c(=O)cc1C(NC(C)=O)CC2 (stereo unspecified)	4.81	4.34		
C[C@H](O)[C@@H]1CN2CCc3c([nH]c4ccc(-c5ccc6c(c5)OCO6)cc34)[C@@H]2C[C@@H]1N(C)C(=O)Nc1ccc(F)cc1	5.01	4.54		
COc1ccccc1-n1nnnc1S(=O)(=O)Cc1ccc(Cl)cc1	5.89	5.61		
Cc1ccccc1C(=O)N1CCN(c2ccc(NC(=O)c3cccc(OC(C)C)c3)cc2)CC1	5.17			> 79 µM (inactive)
COc1ccc(C(=O)Nc2cccc(NC(=O)c3ccc(OC)c(OC)c3)n2)cc1OC	5.43	5.83		
COc1ccc(OC)c(-c2nnc3n2N=C(c2ccc(OC)c(OCC4CC4)c2)CS3)c1	5.41	4.32		
COc1ccc2nc(Nc3nc(CSc4nc5ccccc5[nH]4)cc(=O)[nH]3)nc(C)c2c1	5.22	4.36		
